In article PMC8794255, “Small molecule inhibitor of Igf2bp1 represses Kras and a pro-oncogenic phenotype in cancer cells” (RNA Biology, 2021):
Values joined by “and” are separate entries in the source; they are usually repeats but may differ in a detail not shown here. Equal values may be shown once.

How the values were obtained:
[1] = system: Igf2bp1-cMyc RNA interaction; design: method as in PMID 28846937; settings: fluorescence polarization; cited from earlier work
[2] = design: method as in PMID 28846937; settings: cited from earlier work
[3] = target: T1, Igf2bp1 (Homo sapiens, UniProt Q9NZI8); experiment: Fluorescence polarization (FP) assay of Igf2bp1 binding to fluorescent Kras 6 RNA; settings: FP dose response; read-out: IC50, inhibition of Igf2bp1 binding to Kras 6 RNA
T1 construct: Recombinant full-length Igf2bp1 protein was labelled with RED-tris-NTA dye; made in house
Protocol: For the small-molecule screen, compounds were obtained from the collection maintained at the Grand Israel National Center for Personalized Medicine, consisting of molecules purchased from commercial vendors. Labelled RNA (10 nM) was incubated with recombinant Igf2bp1 protein (400 nM) in FAM-RNA buffer (10 mM Tris pH 8.0, 75 mM KCl, 0.5 mM EDTA, 1 mM DTT, 0.0188 U/μL RNAsin, 0.0005 μg/mL heparin, 0.0001 μg/μL tRNA, 0.01% Triton X-100, 3 mM MgCl2, 0.05% IGEPAL) at room temperature for 15 min. 7 μL of this reaction mix was aliquoted with GNF WDII (USA) into wells of 1536 well plates, with a final concentration of 20 μM compound or DMSO. The plates were spun down and read in a BMG Pherastar FS (Germany) plate reader, in FP mode with a 485/520/520 polarization filter, calibrated to 35 mP for free fluorescein with similar total intensity as experimental samples. […]
To determine the quality of our screening assay, the Z’ factor for each plate was calculated with a Z’ factor greater than 0.5 indicating a robust assay suitable for high throughput screening. Compounds that altered the overall fluorescence intensity compared to controls were considered auto florescence and excluded from further analysis. […] Any small molecule that causes a change of more than three standard deviations from the mean is determined appropriate for further investigation.

[4] = target: T1, Igf2bp1; experiment: Microscale thermophoresis (MST), full-length Igf2bp1; settings: full-length protein, read-out: KD of compound binding to Igf2bp1
Protocol: Recombinant full-length Igf2bp1 protein was labelled with RED-tris-NTA dye using a Monolith NT His-Tag Labelling Kit (NanoTemper) while RRM12, KH12 and KH34 di-domain peptides were labelled using the Protein Labelling Kit RED NHS 2nd generation (NanoTemper). Labelled proteins were spun at 15,000 g for 5 min to eliminate aggregates. All samples were 2X labelled protein mix of Igf2bp1 (200 nM) in PBST and were combined (1:1) with serial dilutions of compound or Kras6 RNA in binding buffer (10mMTris pH = 7.5, 100 mM NaCl, 0.1 mM EDTA, 0.06% IPEGAL, 0.02 μg/μL tRNA, 2 mM DTT, 0.1 μg/μL heparin) in final volume of 20 μL, room temperature for 15 min. Samples were then loaded into standard capillaries (NanoTemper) and read in the Monolith NT.115 scanner (NanoTemper) using the red filter with reading conditions of 95% LED power and 40% MST power, 5 sec fluorescence before, 30 sec MST on, 5 sec fluorescence after and 25 sec delay between samples. Results were analysed using the MO Control software (NanoTemper) for curve fitting to KD.

[5] = target: T1, Igf2bp1; experiment: EMSA, Igf2bp1 with fluorescent Kras 6 RNA; type: binding; settings: compound pre-incubated with protein; 7773 at 200 μM
Protocol: Recombinant Igf2bp1 protein was serially diluted (1:1) starting at an initial concentration of 10,000 nM in 0.75 μg heparin, in a total volume of 13 μL. […] 2 μL RNA was added to each well protein sample, and after a 30 min incubation at room temperature in the dark, loading dye (3 μL) (30% glycerol, 0.01% bromocresol green) was added to each mixture. For compound inhibition experiments, compounds or DMSO were incubated for 4 hours at 37 °C with the protein prior to adding the RNA. Samples were electrophoresed on native TBE polyacrylamide gels (6% acrylamide/bis-acrylamide 37.5:1, 0.5X TBE) that had been pre-run for 30 min. Gels were run at 120 V in 0.5X TBE, at 4°C in the dark. They were then carefully washed and scanned using a Typhoon FLA9500 imager using Alexa 488 laser and LPB1/2 filter. Igf2bp1-RNA complex formation was quantified using the ImageJ software. Prism6 software was used for curve fitting and KD calculations.

T1 sequence (Q9NZI8 whole entry): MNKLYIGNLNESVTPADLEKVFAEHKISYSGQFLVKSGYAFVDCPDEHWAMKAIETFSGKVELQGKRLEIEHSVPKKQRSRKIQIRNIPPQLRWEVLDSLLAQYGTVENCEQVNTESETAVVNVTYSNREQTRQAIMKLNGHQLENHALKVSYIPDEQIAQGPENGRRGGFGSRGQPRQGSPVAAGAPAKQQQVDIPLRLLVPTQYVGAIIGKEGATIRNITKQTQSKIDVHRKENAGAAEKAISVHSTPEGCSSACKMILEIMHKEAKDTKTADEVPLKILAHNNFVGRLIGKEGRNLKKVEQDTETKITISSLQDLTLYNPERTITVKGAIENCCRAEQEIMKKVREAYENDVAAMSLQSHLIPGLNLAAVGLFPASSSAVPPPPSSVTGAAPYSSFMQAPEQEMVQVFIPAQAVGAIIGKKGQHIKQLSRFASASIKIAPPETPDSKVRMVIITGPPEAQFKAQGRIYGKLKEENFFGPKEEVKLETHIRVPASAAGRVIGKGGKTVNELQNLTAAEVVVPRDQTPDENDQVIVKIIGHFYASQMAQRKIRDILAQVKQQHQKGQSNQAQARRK

## NC(=O)c1ccccc1N=Cc1ccc(Br)s1 [BTYNB]
[1]
  Inhibition of Igf2bp1-cMyc RNA interaction in vitro: inhibited Igf2bp1-cMyc RNA interaction in vitro
[2]
  Effect on cell proliferation: appears to inhibit cell proliferation

## O=C(c1cccc(-n2cnnn2)c1)N1CCCC(Nc2ccc3c(c2)OCO3)C1 (centres unmarked) [compound 393]
[3]
  IC50: ~90 µM
[4]
  Kd: > 100 µM and ~120 µM
[5]
  Inhibition of Igf2bp1 binding to Kras 6 RNA (gel shift): lower, but observable, inhibition of RNA binding
